According to patent US20240325451A1, “METHODS OF INDUCING ORGAN TRANSPLANTATION IMMUNE TOLERANCE AND ASSOCIATED COMPOSITIONS AND METHODS” (CITY OF HOPE, priority 2023, published 2024):

System: donor-type and host-type T, B and myeloid cells
Test: Mixed chimerism status by flow cytometry
Conditions: PB and SPL of Foxp3DTR MCs

With diphtheria toxin [DT] the “MC status before and after treatment” value was “did not have significant impact”.
